# How the values were obtained:
# Experiment in all cases: relative viability (nuclei count vs DMSO), 5 days (fraction); higher = more cells survive
# Selisistat + Bortezomib = compound: C1CC(C2=C(C1)C3=C(N2)C=CC(=C3)Cl)C(=O)N [Selisistat] + CC(C)C[C@H](NC(=O)[C@H](Cc1ccccc1)NC(=O)c1cnccn1)B(O)O [Bortezomib] (partner 0.002 µM)
# Outline: (§1)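 A single step with final 0.05% Triton X-100, 1% formaldehyde and 1 ug/ml Hoechst fixed the cells and stained nuclei 5 days after treatment. Lung cancer cell lines in 1536-well plates had been treated by pin tool the day after seeding with one drug alone or a fixed anchor-drug dose plus five library-drug doses (not always all listed) in √10 steps, and nuclei were counted on 4× images. Relative viability is the ratio of nuclei in treated wells to nuclei in vehicle wells, taken as the median of duplicate plates.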
# Selisistat + Crizotinib = compound: C1CC(C2=C(C1)C3=C(N2)C=CC(=C3)Cl)C(=O)N [Selisistat] + C[C@@H](Oc1cc(-c2cnn(C3CCNCC3)c2)cnc1N)c1c(Cl)ccc(F)c1Cl [Crizotinib] (partner 1 µM)
# Outline: as §1
# Serdemetan + Bortezomib = compound: c1ccc2c(CCNc3ccc(Nc4ccncc4)cc3)c[nH]c2c1 [Serdemetan] + CC(C)C[C@H](NC(=O)[C@H](Cc1ccccc1)NC(=O)c1cnccn1)B(O)O [Bortezomib] (partner 0.002 µM)
# Outline: as §1
# Serdemetan + AZD7762 = compound: c1ccc2c(CCNc3ccc(Nc4ccncc4)cc3)c[nH]c2c1 [Serdemetan] + NC(=O)Nc1cc(-c2cccc(F)c2)sc1C(=O)N[C@H]1CCCNC1 [AZD7762] (partner 0.2 µM)
# Outline: as §1
Cell Line,relative viability (Selisistat + Bortezomib; first compound 0.4 µM),relative viability (Selisistat + Bortezomib; first compound 1.265 µM),relative viability (Selisistat + Bortezomib; first compound 4 µM),relative viability (Selisistat + Bortezomib; first compound 12.65 µM),relative viability (Selisistat + Bortezomib; first compound 40 µM),relative viability (Selisistat + Crizotinib; first compound 0.4 µM),relative viability (Selisistat + Crizotinib; first compound 1.265 µM),relative viability (Selisistat + Crizotinib; first compound 4 µM),relative viability (Selisistat + Crizotinib; first compound 12.65 µM),relative viability (Selisistat + Crizotinib; first compound 40 µM),relative viability (Serdemetan + Bortezomib; first compound 0.04 µM),relative viability (Serdemetan + Bortezomib; first compound 0.1265 µM),relative viability (Serdemetan + Bortezomib; first compound 0.4 µM),relative viability (Serdemetan + Bortezomib; first compound 1.265 µM),relative viability (Serdemetan + Bortezomib; first compound 4 µM),relative viability (Serdemetan + AZD7762; first compound 0.04 µM),relative viability (Serdemetan + AZD7762; first compound 0.1265 µM),relative viability (Serdemetan + AZD7762; first compound 0.4 µM),relative viability (Serdemetan + AZD7762; first compound 4 µM),relative viability (Serdemetan + AZD7762; first compound 1.265 µM)
ABC-1,0.317,0.327,0.312,0.383,0.267,1.01,1.19,1.1,0.933,0.881,0.294,0.328,0.317,0.307,0.278,0.971,0.67,0.722,0.866,
NCI-H650,0.832,,0.868,0.636,1.08,0.707,,0.786,0.596,0.664,0.673,0.679,0.872,0.674,0.848,0.854,0.977,1.2,0.933,1.02
NCI-H2085,1.07,1.14,0.95,1.17,1.02,0.893,0.702,0.886,0.864,0.951,1.11,1.13,1.06,0.723,0.674,0.995,0.916,0.974,0.792,0.801
LC-2-ad,1,1.02,1.03,0.985,1.05,0.468,,0.42,0.433,0.433,0.921,0.927,1.04,,0.912,0.806,0.836,0.791,0.709,0.737
NCI-H1355,1.18,1.21,,1.13,1.35,1.01,1.08,,1.08,1.21,1.23,1.19,1.12,1.17,1.1,0.631,0.512,0.623,0.484,0.469
H3255,0.811,0.61,0.536,0.796,0.883,0.899,0.769,0.926,0.899,0.734,0.827,0.68,0.886,0.746,0.7,0.826,0.601,0.733,0.792,0.832
NCI-H1993,1.22,1.18,,1.25,1.23,0.803,0.92,,0.987,0.854,1.08,1.06,1.05,,1.11,0.789,0.897,0.588,0.726,0.778
NCI-H1734,0.902,0.879,0.946,1.1,0.869,0.696,0.606,0.714,0.761,0.648,0.908,,0.677,0.158,0.18,0.375,0.268,0.266,0.144,0.104
HOP-62,0.837,1.08,0.867,0.624,0.883,0.682,0.957,1.09,0.801,0.988,1.09,0.928,0.476,0.47,0.871,0.762,0.544,0.731,0.49,0.519

# — the supplement of paper PMC10307832
